PubChem BioAssay (NCI)
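48-hour exposure; five concentrations; linearly interpolated endpoints. GI50 = concentration required for 50% inhibition of growth. TGI is the concentration that stops growth completely.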

Experiments:
Assay in all cases: NCI anticancer screen, dose series, 48 h
OVCAR-8 ovarian = test system: OVCAR-8 ovarian
NCI-H23 lung = test system: NCI-H23 lung
UACC-257 melanoma = test system: UACC-257 melanoma
SN12C renal = test system: SN12C renal
K-562 leukemia = test system: K-562 leukemia
RXF 393 renal = test system: RXF 393 renal
SK-MEL-2 melanoma = test system: SK-MEL-2 melanoma
786-0 renal = test system: 786-0 renal
SK-MEL-5 melanoma = test system: SK-MEL-5 melanoma
CAKI-1 renal = test system: CAKI-1 renal
SK-MEL-28 melanoma = test system: SK-MEL-28 melanoma
NCI-H226 lung = test system: NCI-H226 lung
MDA-MB-435 = test system: MDA-MB-435
SK-OV-3 ovarian = test system: SK-OV-3 ovarian
HCT-116 colon = test system: HCT-116 colon
MCF7 breast = test system: MCF7 breast
UACC-62 melanoma = test system: UACC-62 melanoma
SR leukemia = test system: SR leukemia
SF-295 CNS = test system: SF-295 CNS
MALME-3M melanoma = test system: MALME-3M melanoma
SNB-75 CNS = test system: SNB-75 CNS
PC-3 prostate = test system: PC-3 prostate
MDA-MB-231 breast = test system: MDA-MB-231 breast
SF-268 CNS = test system: SF-268 CNS
T-47D breast = test system: T-47D breast
M14 melanoma = test system: M14 melanoma
CCRF-CEM leukemia = test system: CCRF-CEM leukemia
SW-620 colon = test system: SW-620 colon
RPMI-8226 leukemia = test system: RPMI-8226 leukemia
DU-145 prostate = test system: DU-145 prostate

**Q.** Which GI50 (OVCAR-8 ovarian) does the source give for `O=C(NNc1nc2cc(C(F)(F)F)ccc2n2cccc12)c1cnccn1` here?
**A.** 365 nM

**Q.** What about the TGI (OVCAR-8 ovarian) of the same compound?
**A.** 2380 nM

**Q.** What about the GI50 (NCI-H23 lung) of the same compound?
**A.** 517 nM

**Q.** And the TGI (NCI-H23 lung)?
**A.** 2030 nM

**Q.** What about the GI50 (UACC-257 melanoma) of the same compound?
**A.** 501 nM

**Q.** What about the TGI (UACC-257 melanoma) of the same compound?
**A.** 1940 nM

**Q.** And the GI50 (SN12C renal)?
**A.** 411 nM

**Q.** And the TGI (SN12C renal)?
**A.** 2070 nM

**Q.** What about the GI50 (K-562 leukemia) of the same compound?
**A.** 356 nM

**Q.** What about the GI50 (RXF 393 renal) of the same compound?
**A.** 1050 nM

**Q.** What about the TGI (RXF 393 renal) of the same compound?
**A.** 2310 nM

**Q.** What about the GI50 (SK-MEL-2 melanoma) of the same compound?
**A.** 475 nM

**Q.** And the TGI (SK-MEL-2 melanoma)?
**A.** 1730 nM

**Q.** What about the GI50 (786-0 renal) of the same compound?
**A.** 365 nM

**Q.** What about the TGI (786-0 renal) of the same compound?
**A.** 1690 nM

**Q.** What about the GI50 (SK-MEL-5 melanoma) of the same compound?
**A.** 602 nM

**Q.** What about the TGI (SK-MEL-5 melanoma) of the same compound?
**A.** 1960 nM

**Q.** And the GI50 (CAKI-1 renal)?
**A.** 299 nM

**Q.** What about the TGI (CAKI-1 renal) of the same compound?
**A.** 1660 nM

**Q.** And the GI50 (SK-MEL-28 melanoma)?
**A.** 478 nM

**Q.** And the TGI (SK-MEL-28 melanoma)?
**A.** 2090 nM

**Q.** What about the GI50 (NCI-H226 lung) of the same compound?
**A.** 772 nM

**Q.** What about the TGI (NCI-H226 lung) of the same compound?
**A.** 3900 nM

**Q.** And the GI50 (MDA-MB-435)?
**A.** 807 nM

**Q.** And the TGI (MDA-MB-435)?
**A.** 2710 nM

**Q.** And the GI50 (SK-OV-3 ovarian)?
**A.** 477 nM

**Q.** And the TGI (SK-OV-3 ovarian)?
**A.** 1860 nM

**Q.** What about the GI50 (HCT-116 colon) of the same compound?
**A.** 182 nM

**Q.** What about the TGI (HCT-116 colon) of the same compound?
**A.** 1320 nM

**Q.** And the GI50 (MCF7 breast)?
**A.** 293 nM

**Q.** What about the TGI (MCF7 breast) of the same compound?
**A.** 1500 nM

**Q.** What about the GI50 (UACC-62 melanoma) of the same compound?
**A.** 302 nM

**Q.** And the TGI (UACC-62 melanoma)?
**A.** 1570 nM

**Q.** And the GI50 (SR leukemia)?
**A.** 46.9 nM

**Q.** What about the TGI (SR leukemia) of the same compound?
**A.** 1200 nM

**Q.** And the GI50 (SF-295 CNS)?
**A.** 134 nM

**Q.** What about the TGI (SF-295 CNS) of the same compound?
**A.** 1590 nM

**Q.** And the GI50 (MALME-3M melanoma)?
**A.** 1140 nM

**Q.** What about the TGI (MALME-3M melanoma) of the same compound?
**A.** 2550 nM

**Q.** What about the GI50 (SNB-75 CNS) of the same compound?
**A.** 1010 nM

**Q.** And the TGI (SNB-75 CNS)?
**A.** 2880 nM

**Q.** And the GI50 (PC-3 prostate)?
**A.** 325 nM

**Q.** What about the TGI (PC-3 prostate) of the same compound?
**A.** 2190 nM

**Q.** What about the GI50 (MDA-MB-231 breast) of the same compound?
**A.** 438 nM

**Q.** What about the TGI (MDA-MB-231 breast) of the same compound?
**A.** 1940 nM

**Q.** And the GI50 (SF-268 CNS)?
**A.** 357 nM

**Q.** And the TGI (SF-268 CNS)?
**A.** 3900 nM

**Q.** And the GI50 (T-47D breast)?
**A.** 292 nM

**Q.** What about the TGI (T-47D breast) of the same compound?
**A.** 1720 nM

**Q.** And the GI50 (M14 melanoma)?
**A.** 250 nM

**Q.** What about the TGI (M14 melanoma) of the same compound?
**A.** 1370 nM

**Q.** And the GI50 (CCRF-CEM leukemia)?
**A.** 141 nM

**Q.** What about the TGI (CCRF-CEM leukemia) of the same compound?
**A.** 1950 nM

**Q.** And the GI50 (SW-620 colon)?
**A.** 422 nM

**Q.** What about the TGI (SW-620 colon) of the same compound?
**A.** 2470 nM

**Q.** What about the GI50 (RPMI-8226 leukemia) of the same compound?
**A.** 290 nM

**Q.** And the TGI (RPMI-8226 leukemia)?
**A.** 3450 nM

**Q.** And the GI50 (DU-145 prostate)?
**A.** 526 nM
